From patent publication US3947411A, “Novel 1-aryl-2-arylalkyl-3-or-4-[4'-(substituted-alkyl)piperazino-1']butanols- 2-or-butenes-1, and methods of manufacture thereof” (Warner-Lambert Company, priority 1972, dated 1976)
Values after ≈ are worked out from the molar mass of the structure shown.

Assays:
A. niger [1] = assay: Minimum inhibitory concentration for fungi in presence of serum, A. niger (Table VI); type: cell-based; conditions: Aspergillus niger; Sabouraud nutrient broth + 10% bovine serum, 28°C, 48 hours
Solubility in water = type: physicochemical; conditions: hydrochlorides or oxalates, read-out: solubilities (in water)
Procedure, shortened: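 Water solubility given for the hydrochloride salts of most compounds and for the oxalate salts of a few.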

Candida albicans = assay: Agar well inhibition zone test against fungi, Candida albicans (Table II); conditions: quantity per well giving inhibition zone (500, 50, 5 μg tested); Sabouraud agar, 28°, 48 hours
Procedure: The efficacy of the compounds against fungi was tested as follows:
The test organisms, in this case the blastomycete Candida albicans and the mold Aspergillus niger, were inoculated onto Sabouraud agar plates by pouring a photometrically adjusted standard suspension of organisms on the plate. After inoculation, wells with a diameter of 5.0 mm were punched in the agar, and filled with 50 ul of the compound solution mentioned before. The quantity of compound applied thus amounted to 500 μg, 50 μg and 5 μg. After incubation at 28° for 48 hours, the quantity of compound was determined at which an inhibition of the organism's growth, in form of an inhibition zone around the corresponding well, was present.

A. niger [2] = assay: Minimum inhibitory concentration for fungi, tube dilution, A. niger (Table IV); conditions: Aspergillus niger, 48 h, read-out: Minimum Inhibitory Concentration, A. niger
Procedure: (§1) A tube dilution series of the respective compound in Sabouraud nutrient broth, whose individual tubes contained concentrations of 1024 μg, 512 μg, 256 μg, 128 μg, 64 μg, 32 μg, 16 μg, 8 μg, 4 μg, 2 μg, 1.1 μg and 0.5 μg/ml, was prepared and inoculated with a photometrically standardized suspension of the test organisms or the spores thereof.

C. albicans [3] = assay: Minimum inhibitory concentration for fungi, tube dilution, C. albicans (Table IV); conditions: Candida albicans, 48 h, read-out: Minimum Inhibitory Concentration, C. albicans
Procedure: as §1

Escherichia coli = assay: Agar well inhibition zone test against bacteria, Escherichia coli (Table III); conditions: quantity per well giving inhibition zone (500, 50, 5 μg tested); nutrient agar, 37°, 24 hours
Staph. aureus = assay: Minimum inhibitory concentration for bacteria, tube dilution, Staph. aureus (Table V); conditions: Staphylococcus aureus, 48 h, read-out: Minimum Inhibitory Concentration, Staph. aureus
Procedure: A tube dilution series of the respective compound in nutrient broth whose individual tubes contained concentrations of 1024 μg, 512 μg, 256 μg, 128 μg, 64 μg, 32 μg, 1 μg, 8 μg, 4 μg, 2 μg, 1.1 μg and 0.5 μg/ml was prepared and inoculated with a photometrically standardized suspension of the test organisms.

Aspergillus niger = assay: Agar well inhibition zone test against fungi, Aspergillus niger (Table II); conditions: quantity per well giving inhibition zone (500, 50, 5 μg tested); Sabouraud agar, 28°, 48 hours
C. albicans [4] = assay: Minimum inhibitory concentration for fungi in presence of serum, C. albicans (Table VI); type: cell-based; conditions: Candida albicans; Sabouraud nutrient broth + 10% bovine serum, 28°C, 48 hours
Staphylococcus aureus = assay: Agar well inhibition zone test against bacteria, Staphylococcus aureus (Table III); conditions: quantity per well giving inhibition zone (500, 50, 5 μg tested); nutrient agar, 37°, 24 hours
Procedure: The efficacy of the compounds against bacteria was tested as follows:
The test organisms, in this case Staphylococcus aureus and Escherichia coli, were inoculated on nutrient agar as described in Example 12, wells were punched, and the solutions of the compounds were transferred to fill the wells. The quantity of compound in the wells amounted again to 500 μg, 50 μg and 5 μg.
After incubation a 37° for 24 hours the quantity of compound was determined at which an inhibition of the organism's growth, in the form of an inhibition zone around the corresponding well, occurred.

[5] = test system: Mycobacterium tuberculosis II 37 RV (typus humanus); assay: Efficacy against Mycobacteria, Tb-broth dilution series (Table I); type: cell-based; conditions: 504 h, Dubos Tb-broth + 10% bovine serum, 21 days, read-out: Minimum Inhibitory Concentration
E. coli = assay: Minimum inhibitory concentration for bacteria, tube dilution, E. coli (Table V); type: cell-based; conditions: Escherichia coli, 48 h, read-out: Minimum Inhibitory Concentration, E. coli

Compound	MIC (A. niger [1]) [µg/mL]	solubility (Solubility in water) [mg/mL]	Inhibition Area at μg, Cand. albicans (Candida albicans) [µg]	MIC (A. niger [2]) [µg/mL]	MIC (C. albicans [3]) [µg/mL]	Inhibition Area at μg, E. coli (Escherichia coli) [µg]	MIC (Staph. aureus) [µg/mL]	Inhibition Area at μg, Asp. niger (Aspergillus niger) [µg]	MIC (C. albicans [4]) [µg/mL]	Inhibition Area at μg, Staph. aureus (Staphylococcus aureus) [µg]	MIC [5] [µg/mL]	MIC (E. coli) [µg/mL]
CC(N1CCN(CCN2CCCC2)CC1)C(O)(Cc1ccccc1)Cc1ccccc1 (stereo not drawn) [III, 1-phenyl-2-benzyl-3-[4'-(β-pyrrolidino-ethyl)-piperazino-1']-butanol-2]	128	50 (≈ 119000 µM)	50	64 (≈ 152 µM)	32 (≈ 75.9 µM)	500	512 (≈ 1210 µM)	50	64	50	50	–
Cc1cccc(CC(O)(Cc2cccc(C)c2)C(C)N2CCN(C)CC2)c1 (stereo not drawn) [IL, 1-m-tolyl-2-(m-methyl-benzyl)-3-(4'-methyl-piperazino-1')-butanol-2]	128	50 (≈ 136000 µM)	50	32 (≈ 87.3 µM)	32 (≈ 87.3 µM)	500	128 (≈ 349 µM)	50	256	50	100	–
CCCCCCCCN1CCN(CCCCCCN2CCN(C(C)C(=Cc3ccccc3)Cc3ccccc3)CC2)CC1 (stereo not drawn) [LXII, 1-phenyl-2-benzyl-3-[4'-w-(4"-n-octyl-piperazino-1")-n-hexyl-piperazino-1']-butene-1]	512	25 (≈ 42600 µM)	5	< 0.5	2 (≈ 3.41 µM)	50	16 (≈ 27.3 µM)	50	1020	5	–	1020 (≈ 1740 µM)
Clc1ccc(C=C(CCN2CCN(CCN3CCCCC3)CC2)Cc2ccc(Cl)cc2)cc1 [LXIII, 1-(p-chloro-phenyl)-2-(p-chlorobenzyl)-4-[4'-(β-piperidino-ethyl)-piperazino-1']-butene-1]	32	< 10	5	< 0.5	32 (≈ 65.8 µM)	5	8 (≈ 16.4 µM)	50	128	5	–	64 (≈ 132 µM)
C(=C(CCN1CCN(CCN2CCCCC2)CC1)Cc1ccccc1)c1ccccc1 [LXIV]	8	100 (≈ 239000 µM)	50	8 (≈ 19.2 µM)	8 (≈ 19.2 µM)	5	8 (≈ 19.2 µM)	5	128	5	–	256 (≈ 613 µM)
CC(C(=Cc1ccccc1Cl)Cc1ccccc1Cl)N1CCN(CCN2CCN(C)CC2)CC1 (stereo not drawn) [LXVI]	128	100 (≈ 199000 µM)	5	< 0.5	4 (≈ 7.98 µM)	50	32 (≈ 63.8 µM)	5	1020	5	–	128 (≈ 255 µM)
CC(N1CCN(CCN2CCOCC2)CC1)C(O)(Cc1ccccc1)Cc1ccccc1 (stereo not drawn) [V, 1-phenyl-2-benzyl-3-[4'-(β-morpholino-ethyl)-piperazino-1']-butanol-2]	256	50 (≈ 114000 µM)	50	64 (≈ 146 µM)	> 1020	500	512 (≈ 1170 µM)	50	–	50	100	–
CC1CCCN(CCN2CCN(C(C)C(O)(Cc3ccccc3)Cc3ccccc3)CC2)C1 (stereo not drawn) [VIII, 1-phenyl-2-benzyl-3-{4'-[β-(3"-methyl-piperidino)-ethyl]-piperazino-1'}butanol-2]	–	50 (≈ 111000 µM)	50	–	16 (≈ 35.6 µM)	> 500	512 (≈ 1140 µM)	500	16	50	100	–
CC(N1CCN(CCN2CCN(Cc3ccccc3)CC2)CC1)C(O)(Cc1ccccc1)Cc1ccccc1 (stereo not drawn) [XII, 1-phenyl-2-benzyl-3-{4'-[β-(4"-benzyl-piperazino-1")-ethyl]-piperazino-1'}-butanol-2]	> 1020	100 (≈ 190000 µM)	5	16 (≈ 30.4 µM)	64 (≈ 121 µM)	500	64 (≈ 121 µM)	50	256	50	100	–
CC(N1CCN(CCCN2CCCCC2)CC1)C(O)(Cc1ccccc1)Cc1ccccc1 (stereo not drawn) [XIX, 1-phenyl-2-benzyl-3-[4'-(γ-piperidinopropyl)-piperazino-1']-butanol-2]	32	100 (≈ 222000 µM)	5	32 (≈ 71.2 µM)	16 (≈ 35.6 µM)	500	–	5	16	500	100	–
CC(N1CCN(CCN(C)Cc2ccccc2)CC1)C(O)(Cc1ccccc1)Cc1ccccc1 (stereo not drawn) [XV, 1-phenyl-2-benzyl-3-[4'-(β-N-methyl-N-benzylamino-ethyl)-piperazino-1']-butanol-2]	–	100 (≈ 212000 µM)	50	128 (≈ 271 µM)	16 (≈ 33.9 µM)	50	> 1020	50	512	50	–	> 1020
CC(C(=Cc1ccccc1)Cc1ccccc1)N1CCN(CCN2CCCC2)CC1 (stereo not drawn) [XXIX, 1-phenyl-2-benzyl-3-[4'-(β-pyrrolidino-ethyl)-piperazino-1']-butene-1]	32	100 (≈ 248000 µM)	50	16 (≈ 39.6 µM)	8 (≈ 19.8 µM)	500	128 (≈ 317 µM)	50	128	50	10	–
CC(C(=Cc1ccccc1)Cc1ccccc1)N1CCN(CCN2CCCCC2)CC1 (stereo not drawn) [XXX, 1-phenyl-2-benzyl-3-[4'-(β-piperidino-ethyl)-piperazino-1']-butene-1]	32	10 (≈ 23900 µM)	50	32 (≈ 76.6 µM)	16 (≈ 38.3 µM)	500	128 (≈ 306 µM)	5	256	50	50	–
